pIC50: −log10 of the molar value.
Tested on: 233499-124-R-J3-PDC complex spheroid growth
Experiment: Anticancer human tumor 233499-124-R-J3-PDC patient-derived colon adenocarcinoma cell line growth inhibition [AhR]
Settings: for pIC50: curve of first compound; for viability, T/C: stronger effect = lower value
Text: Multicellular complex tumor spheroid response to aryl hydrocarbon receptor antagonists in combination with a variety of drugs and investigational agents in selected tumor cell lines
The current study was undertaken to assess response to aryl hydrocarbon receptor antagonists in combination with standard-of-care drugs and investigational agents in solid tumor complex spheroid models. Complex spheroids include a stromal component modeled by human endothelial cells (HUVEC) and fibroblasts modeled by human mesenchymal stem cells (MSCs). The concentration ranges selected for each drug and investigational agent were based upon clinically achievable concentrations if the clinical Cmax of the agent was known.
Compounds. The drugs and investigational agents: BAY 2416964 (NSC825713), GNF351 (NSC835774), CH-223191 (NSC835775), CPI-455 (NSC825282), aza-TdCyd (NSC777586), decitabine (NSC127716), belinostat (NSC758774), entinostat (NSC756642), pevonedistat (NSC761192), tazemetostat (NSC777109), talazoparib (NSC765396), olaparib (NSC753686), selinexor (NSC780203), nedisertib (M3814, NSC802822), bortezomib (NSC756655), venetoclax (NSC766270), doxorubicin (NSC123127), elimusertib (BAY189344, NSC800525), ceralasertib (AZD6738, NSC777638), TAK-243 (NSC785004), alisertib (NSC759677), etoposide (NSC141540), topotecan (NSC609699), eribulin (NSC707389), gemcitabine (NSC613327), carboplatin (NSC241240), cisplatin (NSC119875), and SN-38 (NSC673596) were obtained from the National Cancer Institute (NCI) Developmental Therapeutics Program Chemical Repository (32). The FDA-approved anticancer drug set is available from the Developmental Therapeutics Program at https://dtp.cancer.gov/organization/dscb/obtaining/available plates.htm. […] The stock solutions were prepared in dimethyl sulfoxide (DMSO, Sigma-Aldrich, St. Louis, MO, cat. D2650), except for the platinum compounds which were prepared in saline (Quality Biological, Gaithersburg, MD, cat. 114-055-101), at 800-fold the tested concentration and stored at -70 degrees C prior to their use. All drugs and investigational agents were tested over a range starting from a high concentration at or near the clinical Cmax and decreasing in half-log increments. If the clinical Cmax for an agent had not been determined, the highest concentration tested was 10 microM (Table 1).
Cell Culture. All cells were maintained in an incubator at 37 degrees C and 5% CO2 with 95% humidity. The PDC lines were cultured according to standard operating procedures established by the NCI PDMR (https://pdmr.cancer.gov). Briefly, all PDCs were thawed and cultured in Matrigel-coated flasks prepared with a working solution of 1X Ham's F-12 nutrient mix, without supplementation (Invitrogen, Waltham, MA, cat. 11765054), 100 U/mL penicillin-streptomycin (Invitrogen, cat. 15140122), and 2.5% Matrigel (Corning Inc., Corning, NY, cat. 354248) for the first three passages. All PDCs were cultured in complete DMEM/F-12 media containing advanced DMEM/F-12 (Invitrogen, cat. 12634028), 4.9% defined fetal bovine serum, heat inactivated (HyClone Laboratories Inc., Logan, UT, cat. SH30070.03HI), 389 ng/mL hydrocortisone (Sigma-Aldrich, cat. H4001), 9.7 ng/mL human EGF recombinant protein (Invitrogen, cat. PHG0313), 23.4 microg/mL adenine (Sigma-Aldrich, cat. A2786), 97.3 U/mL penicillin-streptomycin (Invitrogen, cat. 15140122), 1.9 mM L-glutamine (Invitrogen, cat. 25030081), and 9.7 microM Y-27632 dihydrochloride (Tocris Bioscience, Bristol, United Kingdom, cat. 1254). The PDCs were cultured in complete DMEM/F12 media without 10 microM Y-27632 dihydrochloride for at least two passages prior to the screen. The established cell lines NCI-H1341 and […] were cultured in DMEM/F-12, HEPES (Invitrogen, cat. 11330032), 5% defined fetal bovine serum (HyClone Laboratories Inc., cat. SH30070.03), ITS premix universal culture supplement [insulin (5 microg/mL), transferrin (5 microg/mL), and selenious acid (5 ng/mL)] […]

[1] = second compound 0.1 µM, first compound 0.0316 µM
[2] = second compound 0.1 µM, first compound 0.1 µM
[3] = second compound 0.1 µM, first compound 0.316 µM
[4] = second compound 0.1 µM, first compound 1 µM
[5] = second compound 0.316 µM, first compound 0.0316 µM
[6] = second compound 0.316 µM, first compound 0.1 µM
[7] = second compound 0.316 µM, first compound 0.316 µM
[8] = second compound 0.316 µM, first compound 1 µM
[9] = second compound 1 µM, first compound 0.0316 µM
[10] = second compound 1 µM, first compound 0.1 µM
[11] = second compound 1 µM, first compound 0.316 µM
[12] = second compound 1 µM, first compound 1 µM
[13] = second compound 3.16 µM, first compound 0.0316 µM
[14] = second compound 3.16 µM, first compound 0.1 µM
[15] = second compound 3.16 µM, first compound 0.316 µM
[16] = second compound 3.16 µM, first compound 1 µM
[17] = second compound 10 µM, first compound 0.0316 µM
[18] = second compound 10 µM, first compound 0.1 µM
[19] = second compound 10 µM, first compound 0.316 µM
[20] = second compound 10 µM, first compound 1 µM
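Note: spheroids exposed to agents for seven days before reading.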

Nc1ncn(C2CC(O)C(CO)O2)c(=O)n1 (stereo not given) + CC(CO)NC(=O)c1cc(-c2ccc(Cl)cc2)nn(-c2cnn(C)c2)c1=O
pIC50 (second compound 0.1 µM): < 6.00 | pIC50 (second compound 0.316 µM): < 6.00 | pIC50 (second compound 1 µM): < 6.00 | pIC50 (second compound 3.16 µM): < 6.00 | pIC50 (second compound 10 µM): < 6.00 | viability, T/C (second compound 0.1 µM, first compound 0.00316 µM): 103% | viability, T/C (second compound 0.1 µM, first compound 0.01 µM): 103% | viability, T/C [1]: 104% | viability, T/C [2]: 94.1% | viability, T/C [3]: 93% | viability, T/C [4]: 94.2% | viability, T/C (second compound 0.316 µM, first compound 0.00316 µM): 98.2% | viability, T/C (second compound 0.316 µM, first compound 0.01 µM): 103% | viability, T/C [5]: 79.4% | viability, T/C [6]: 92.9% | viability, T/C [7]: 91% | viability, T/C [8]: 95.5% | viability, T/C (second compound 1 µM, first compound 0.00316 µM): 92.3% | viability, T/C (second compound 1 µM, first compound 0.01 µM): 94.5% | viability, T/C [9]: 88.9% | viability, T/C [10]: 72.5% | viability, T/C [11]: 85.6% | viability, T/C [12]: 91.9% | viability, T/C (second compound 3.16 µM, first compound 0.00316 µM): 95.9% | viability, T/C (second compound 3.16 µM, first compound 0.01 µM): 104% | viability, T/C [13]: 90.4% | viability, T/C [14]: 89.5% | viability, T/C [15]: 87.1% | viability, T/C [16]: 83.2% | viability, T/C (second compound 10 µM, first compound 0.00316 µM): 89.2% | viability, T/C (second compound 10 µM, first compound 0.01 µM): 79.9% | viability, T/C [17]: 89.7% | viability, T/C [18]: 97.7% | viability, T/C [19]: 85.9% | viability, T/C [20]: 93.2%

CC(C)c1c(-c2ccccc2)nc2c(C#N)c[nH]n2c1=O + Cc1ccccc1N=Nc1ccc(NC(=O)c2ccnn2C)c(C)c1
pIC50 (second compound 0.1 µM): < 5.00 | pIC50 (second compound 0.316 µM): < 5.00 | pIC50 (second compound 1 µM): < 5.00 | pIC50 (second compound 3.16 µM): < 5.00 | pIC50 (second compound 10 µM): < 5.00 | viability, T/C [1]: 110% | viability, T/C [2]: 98.9% | viability, T/C [3]: 101% | viability, T/C [4]: 112% | viability, T/C (second compound 0.1 µM, first compound 3.16 µM): 95.2% | viability, T/C (second compound 0.1 µM, first compound 10 µM): 105% | viability, T/C [5]: 100% | viability, T/C [6]: 108% | viability, T/C [7]: 92.3% | viability, T/C [8]: 104% | viability, T/C (second compound 0.316 µM, first compound 3.16 µM): 118% | viability, T/C (second compound 0.316 µM, first compound 10 µM): 107% | viability, T/C [9]: 110% | viability, T/C [10]: 110% | viability, T/C [11]: 98.7% | viability, T/C [12]: 102% | viability, T/C (second compound 1 µM, first compound 3.16 µM): 106% | viability, T/C (second compound 1 µM, first compound 10 µM): 106% | viability, T/C [13]: 102% | viability, T/C [14]: 99.5% | viability, T/C [15]: 103% | viability, T/C [16]: 110% | viability, T/C (second compound 3.16 µM, first compound 3.16 µM): 108% | viability, T/C (second compound 3.16 µM, first compound 10 µM): 105% | viability, T/C [17]: 103% | viability, T/C [18]: 102% | viability, T/C [19]: 107% | viability, T/C [20]: 101% | viability, T/C (second compound 10 µM, first compound 3.16 µM): 89% | viability, T/C (second compound 10 µM, first compound 10 µM): 85.3%
